Patent publication US5519028A, “Antiviral preparations” (priority 1992, dated 1996)

Key:
HIV-1 BRE1 (HIV-1Asym.) [1] = assay: HIV P24 production, target PBMC pretreated, isolate BRE1; format: cell-based; settings: for Post-infection production of HIV P24: PBMC + 30 μg/ml 2 hours
Description: (§1) To test the efficacy of flavopereirine on the infectious capability of HIV-1, two experiments were conducted. […] After 2 hours of incubation, the cells were rinsed twice and cultivated in 1 ml of RPMI 1640 containing 20 IU of IL-2 per ml (Boehringer […], Germany), 2 μg of Polybrene (hexadimethrine bromide) per ml (Sigma, St. Louis, Mo., USA) and 10^-7 IU of goat antiserum acting against human alpha interferon (Janssen, Beerse, Belgium) per ml. Half the culture was changed after 72 hours, and thereafter every 48 hours until the 30th day. […] The surface material of the culture was tested by an immuno-enzymatic (ELISA) assay for the production of antigen P24 (Abbott, Chicago, Ill., USA) and the optical density (OD) of the resulting color was converted into P24 concentration from the slope of a standard nomogram, as described by W. Lu and J. -M. Andrieu, Journal of Virology, 66(1): 334-340 (1992).

[2] = tested on: PBMC stimulated by PHA (blastic); assay: Cytotoxicity (viability) in blastic PBMC; format: cell-based, human; settings: 30 or 60 μg/ml
Description: (§2) To evaluate the cytotoxicity of flavopereirine in resting PBMC and in blast cells, prewashed fresh and blastic PBMC taken from five randomly-selected,healthy, HIV-negative donors were treated in triplicate with 30 or 60 μg flavopereirine per ml of alcoholic solution for two hours, After washing twice, the cells were placed in culture in cellular culture medium until day 15. The viability of the cells of each group was examined by exclusion coloring with trypan blue and by quantimetric analysis. Cultures of HIV-negative PBMC without flavopereirine (compound H) were used as controls.

[3] = Cytotoxicity (viability) in blastic PBMC; format: cell-based, human; settings: human, pha-stimulated pbmc, blastic, read-out: Viability of PBMC after exposure; for viability at 72 h: d3; for viability at 168 h: d7; for viability at 264 h: d11; for viability at 312 h: d13; for viability at 360 h: d15
Description: as §2

[4] = Cytotoxicity (viability) in resting PBMC; format: cell-based, human; settings: human, pbmc, read-out: Viability of PBMC after exposure; for viability at 72 h: d3; for viability at 168 h: d7; for viability at 264 h: d11; for viability at 312 h: d13; for viability at 360 h: d15
Description: as §2

human PBMC at rest = assay: Cytotoxicity (viability) in resting PBMC; format: cell-based
Description: as §2

[5] = Penetration of the blood-brain barrier (encephalic content); format: in vivo, male CDI mice; settings: 10 mg orally
interleukin-6 = assay: IL-6 production by monocytes of normal donors; format: cell-based, human
Description: (§3) The effects of flavopereirine on the production of primary (IL-1β and TNF-α) and secondary (IL-6) cytokines by monocytes was also tested. The adhesive monocytes used were taken from the blood of two types of donors:
Normal donors--voluntary blood donors who attended the blood bank of the Pitie-Salpetriere Hospital, Paris, France; and […]

HIV-1 BRE1 (HIV-1Asym.) [6] = assay: HIV P24 production in PBMC, viral inoculum pretreated, isolate BRE1; format: cell-based; settings: virus pretreated with 30 or 60 μg/ml
Description: as §1

[7] = Sub-chronic administration toxicity in rats; format: in vivo, male and female Sprague-Dawley rats (OPA); settings: 530 and 2120 mg/kg/day
Description: No lesions of the liver, kidneys, duodenum, myocardia, spleen, thyroid and parathyroid glands, testicles or ovaries were visible by microscope.

H-9 cells = assay: Multiplication of non-infected H-9 cells; format: cell-based; settings: 30 and 60 μg/ml
TNF-α = TNF-α production by monocytes of normal donors; format: cell-based, human
Description: as §3
Normal donors--voluntary blood donors who attended the blood bank of the Pitie-Salpetriere Hospital, Paris, France; and
Product H was not used in these experiments at a rate of more than 20 μg/ml water, since above this rate, net toxicity could have been produced.

HIV-1 = HIV-1 cytopathogenic effect on MT4 cells (syncytia count); format: cell-based
Description: An evaluation of the antiviral effect of flavopereirine was also undertaken by studying the cytopathogenic effect of the HIV virus on MT4 cells, given that a formation of syncytia was observed 4-6 days after infection by HIV-1, followed by the death of the cells.
The flavopereirine was used in the form of an alcoholic solution (40 mg in 100 μl alcohol). Dilutions were made in RPMI medium at 10% of FCS, 1% of PSN and 1% of glutamine. The MT4 cells were left to pre-incubate for two hours at 37° C. with a successive dilution of flavopereirine containing 3×10^5 cells for 10 μl of flavopereirine solution. The solution was obtained by adding 100 μl of a 10^-4 dilution of HIV-1 virus, producing a syncytia formation in 4-6 days. After one hour of incubation at 37° C., the infected MT4 cells were washed three times with RPMI solution before being placed in culture (3×10^5 cells/ml in microplates with 24 wells) with the presence of different dilutions of flavopereirine. The syncytia count was taken each day in duplicate.

## CCc1ccc2c3[nH]c4ccccc4c3cc[n+]2c1 [flavopereirine]
HIV-1 BRE1 (HIV-1Asym.) [1]; d3
  Post-infection production of HIV P24: 113 ± 7 pg/mL
HIV-1 BRE1 (HIV-1Asym.) [1]; d5
  Post-infection production of HIV P24: > 1500 pg/mL
HIV-1 BRE1 (HIV-1Asym.) [1]; target PBMC pretreated with 60 μg/ml only
  inhibition of productive viral infections: complete inhibition of productive viral infections
[2]
  viability of blastic cells: appeared to be independent of exposure to compound H
[3]; 30 μg/ml 2 hrs
  viability at 72 h: 88 ± 3%
  viability at 168 h: 35 ± 7%
  viability at 264 h: 71 ± 3%
  viability at 312 h: 76 ± 9%
  viability at 360 h: 69 ± 8%
[3]; 60 μg/ml 2 hrs
  viability at 72 h: 79 ± 4%
  viability at 168 h: 74 ± 5%
  viability at 264 h: 70 ± 4%
  viability at 312 h: 71 ± 8%
  viability at 360 h: 63 ± 7%
[4]; 30 μg/ml 2 hrs
  viability at 72 h: 95 ± 4%
  viability at 168 h: 93 ± 2%
  viability at 264 h: 88 ± 7%
  viability at 312 h: 82 ± 10%
  viability at 360 h: 81 ± 11%
[4]; 60 μg/ml 2 hrs
  viability at 72 h: 56 ± 6%
  viability at 168 h: 23 ± 4%
  viability at 264 h: 17 ± 4%
  viability at 312 h: 12 ± 5%
  viability at 360 h: 25 ± 8%
Human PBMC at rest; 30 μg/ml
  significant reduction of viability of resting PBMC: this was not the case
Human PBMC at rest; 60 μg/ml, p<0.05
  viability of resting PBMC: reduced significantly
[5]; 20 g mice, brains 0.5 g
  encephalic flavopereirine concentration: 14 µg/g
[5]; mice
  encephalic flavopereirine content: approximately 7 μg
  penetration of the blood-brain barrier: observed to penetrate the blood-brain barrier
interleukin-6; doses of less than 5 μg/ml, first two normal donors, cytokine not specified
  activity on cytokine production: inactive
interleukin-6; normal donors
  direct activity on production of interleukin-6: No modification in response was observed
interleukin-6; stimulated monocytes, dose-dependent, never total, P<0.05
  indirect activity on production of IL-6: sharp reduction in the production of IL-6
HIV-1 BRE1 (HIV-1Asym.) [6]
  infection of target PBMC: completely prevented the infection of target PBMC
[7]
  alteration in globular blood count: Neither was any alteration in the globular blood count noted
  alterations in body weight or feeding: no alterations were noted in either body weight or feeding
  hepatic and renal functions: remained normal
[7]; microscope
  lesions of liver, kidneys, duodenum, myocardia, spleen, thyroid, parathyroid, testicles, ovaries: No lesions
H-9 cells
  multiplication of non-infected cells: does not affect the multiplication of non-infected cells
TNF-α; donor 7, one dose only
  direct activity on production of TNF-α: Increase in the production of TNF-α
TNF-α; stimulated monocytes, heavy dosage only (20 βg/ml as printed), p<0.05
  indirect activity on production of TNF-α: sharp reduction in production
HIV-1; 100 ng/ml, d7, duplicate, Table I
  syncytia: ++/T
HIV-1; 1 μg/ml, d7, duplicate, Table I
  syncytia: ++/T
HIV-1; 30 μg/ml, d6, duplicate, Table III
  syncytia: a few were observed after 6 days
HIV-1; 50 μg/ml, d7, duplicate, Table I
  syncytia: syncytia had not formed after 7 days culture
HIV-1; 50 μg/ml, Table II summary
  protection: confirms the protection
HIV-1; 60 μg/ml, d7, duplicate, Table III
  syncytia: no syncytia were formed
HIV-1; from 10 μg/ml to 100 ng/ml, Table I summary
  syncytia: syncytia was observed, as it was in the HIV-1 control
